The values that follow come from patent US20130183237A1 (priority 2007, published 2013).

The test addresses thrombin (Homo sapiens, UniProt P00734). The settings on record: fibrinogen 3 mg/ml, thrombin 20 nM, 37° C., no pre-incubation, dose-dependent.

Experimental: 200 μl of fibrinogen (final concentration 3 mg/ml) were incubated with 100 μl of peptides (various concentrations) at 37° C. Clotting of fibrinogen was initiated by the addition of 100 μl of thrombin (final concentration 20 nM). All reagents and samples were dissolved in 50 mM Tris buffer (pH 7.4) containing 100 mM NaCl.

Consider APPFDFEAIPEEYLDDES [AP18], for which the fibrinogen clotting time result is recorded as “prolonged”.
